The text below walks through data of ChEMBL document CHEMBL2380277, “A new synthesis of 4'-resveratrol esters and evaluation of the potential for anti-depressant activity” (Bioorg Med Chem Lett, 2013).

Activity calls are given as the source filed them.

The nature of series [1]: Half life in human. The format is ADME, organism-based. Particulars: in vivo.
Series [2] has as its system HL-60. Put plainly: Cytotoxicity against human HL60 cells. The format is functional. The note with it: read-out: ED50 (the source's name).
Series [3] relates to Rattus norvegicus. As to the kind of experiment: Toxicity in Long-Evans rat assessed as hypothalamic aromatase level at 20 mg/kg, sc measured per mg of protein measured for 21 days (reference value: 60 +/- 6.1 pmol/hr). Type of series: organism-based. Further details: dose 20 mg/kg, route subcutaneous. Particulars: in vivo, 504 h.
The subject of series [4] is Rattus norvegicus. Put plainly: Toxicity in Long-Evans rat assessed as change in estrous cycle pattern at 20 to 90 mg/kg, sc measured for 8 days by vaginal histological analysis. Particulars: in vivo, 192 h. Further details: dose 20-90 mg/kg, route subcutaneous. The format is organism-based.
The subject of series [5] is Rattus norvegicus. As to the kind of experiment: Toxicity in Long-Evans rat assessed as food intake at 90 mg/kg, sc measured after 20 to 21 days (reference value: 33.8 +/- 1.8 g). The format is organism-based. Further details: dose 90 mg/kg, route subcutaneous. The note with it: in vivo.
Series [6] deals with Rattus norvegicus. As to the kind of experiment: Toxicity in Long-Evans rat assessed as food intake at 20 mg/kg, sc measured after 20 to 21 days (reference value: 33.8 +/- 1.8 g). The format is organism-based. Further details: dose 20 mg/kg, route subcutaneous. Particulars: in vivo.
The test system of series [7] is Rattus norvegicus. Put plainly: Toxicity in Long-Evans rat assessed as food intake at 90 mg/kg, sc measured after 8 to 9 days (reference value: 33.1 +/- 1.5 g). Type of series: organism-based. Further details: dose 90 mg/kg, route subcutaneous. Particulars: in vivo.
Series [8] deals with Rattus norvegicus. As to the kind of experiment: Antidepressant activity in Long-Evans rat assessed as effect on swim speed at 20 to 90 mg/kg, sc administered 21 days measured for 6 mins by Porsalt forced-swim test relative to vehicle-treated control. Type of series: functional, organism-based.
The subject of series [9] is Rattus norvegicus. As to the kind of experiment: Antidepressant activity in Long-Evans rat assessed as mobile index at 90 mg/kg, sc administered 21 days measured for 6 mins by Porsalt forced-swim test (reference value: 286 +/- 8.7 secs). The format is functional. Particulars: route subcutaneous.
In series [10] the test system is Rattus norvegicus. As to the kind of experiment: Toxicity in Long-Evans rat assessed as white adipose tissue weight at 20 to 90 mg/kg, sc measured after 21 days. The format is organism-based. Particulars: in vivo, 504 h. Further details: dose 20-90 mg/kg, route subcutaneous.
For series [11], the system named is Rattus norvegicus. Put plainly: Toxicity in Long-Evans rat assessed as water intake at 20 mg/kg, sc measured after 20 to 21 days (reference value: 50.7 +/- 3.5 mL). The format is organism-based. Further details: dose 20 mg/kg, route subcutaneous. Particulars: in vivo.
Series [12] concerns Rattus norvegicus. Put plainly: Toxicity in Long-Evans rat assessed as water intake at 90 mg/kg, sc measured after 8 to 9 days (reference value: 53.3 +/- 2.7 mL). The format is organism-based. Further details: dose 90 mg/kg, route subcutaneous. The note with it: in vivo.
Series [13] concerns Rattus norvegicus. As to the kind of experiment: Antidepressant activity in Long-Evans rat assessed as effect on number of boli excreted at 20 to 90 mg/kg, sc administered 21 days measured for 6 mins by Porsalt forced-swim test relative to vehicle-treated control. Type of series: functional, organism-based.
The subject of series [14] is Rattus norvegicus. Put plainly: Toxicity in Long-Evans rat assessed as white adipose tissue weight/body weight ratio at 20 to 90 mg/kg, sc measured after 21 days. Particulars: in vivo, 504 h. Type of series: organism-based. Further details: dose 20-90 mg/kg, route subcutaneous.
Series [15] deals with Rattus norvegicus. As to the kind of experiment: Toxicity in Long-Evans rat assessed as water intake at 20 mg/kg, sc measured after 8 to 9 days (reference value: 53.3 +/- 2.7 mL). Type of series: organism-based. Further details: dose 20 mg/kg, route subcutaneous. The note with it: in vivo.
Series [16] has as its system Rattus norvegicus. Put plainly: Toxicity in Long-Evans rat assessed as hypothalamic aromatase level at 90 mg/kg, sc measured per mg of protein measured for 21 days (reference value: 60 +/- 6.1 pmol/hr). Particulars: in vivo, 504 h. Further details: dose 90 mg/kg, route subcutaneous. The format is organism-based.
Series [17] relates to Rattus norvegicus. As to the kind of experiment: Antidepressant activity in Long-Evans rat assessed as mobile index at 20 mg/kg, sc administered 21 days measured for 6 mins by Porsalt forced-swim test (reference value: 286 +/- 8.7 secs). The format is functional. Particulars: route subcutaneous.
The subject of series [18] is Rattus norvegicus. As to the kind of experiment: Toxicity in Long-Evans rat assessed as food intake at 20 mg/kg, sc measured after 8 to 9 days (reference value: 33.1 +/- 1.5 g). Type of series: organism-based. Further details: dose 20 mg/kg, route subcutaneous. The note with it: in vivo.
For series [19], the system named is Rattus norvegicus. Put plainly: Toxicity in Long-Evans rat assessed as water intake at 90 mg/kg, sc measured after 20 to 21 days (reference value: 50.7 +/- 3.5 mL). The format is organism-based. Further details: dose 90 mg/kg, route subcutaneous. Particulars: in vivo.
Series [20] concerns Rattus norvegicus. As to the kind of experiment: Antidepressant activity in Long-Evans rat assessed as effect on inverts at 20 to 90 mg/kg, sc administered 21 days measured for 6 mins by Porsalt forced-swim test relative to vehicle-treated control. Type of series: functional, organism-based.
Series [21] concerns Rattus norvegicus. As to the kind of experiment: Antidepressant activity in Long-Evans rat assessed as effect on dives at 20 to 90 mg/kg, sc administered 21 days measured for 6 mins by Porsalt forced-swim test relative to vehicle-treated control. The format is functional, organism-based.

As for `Oc1ccc(/C=C/c2cc(O)cc(O)c2)cc1` [RESVERATROL], the half-life (usually the time needed for the level to fall by half in the phase considered) in series [1] is 30 min. Moreover, the EC50 in series [2] is 22 µM.

On to `CC(=O)Oc1ccc(/C=C/c2cc(O)cc(O)c2)cc1`, for which the Activity in [3] is 71 pmol/h; in [4], “Non-toxic”; in [5] it was 36.9 g; in [6], 35.2 g; in [7], 35.2 g; in series [10] it was 6.6 g. The Activity in [11] came out at 50.9 mL; in series [12] it was 56.7 mL; in series [15], 52.1 mL; in series [16], 73 pmol/h; in [18], 34.3 g; in [19] it was 55.8 mL. Further, the EC50 in series [2] is 17 µM. Also, the result in series [8], in [13], in series [20] and in series [21] was Active. The Time in series [9] was 319 s; in series [17], 312 s. The Ratio in series [14] was found to be 2.4.
